Experimental data from PubChem BioAssay AID977613 (Broad Institute, 2014).
The source made the active and inactive calls. How the calls were made is not given here.

tested on: Broad 7084-01 inhibitor HTS, set 2; experiment: inhibitors in Broad screen 7084-01, set 2 (AID 977613);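 further: host cells are infected with parasite promastigotes that become internalized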

Compound	active concentration
O=C(CC1CC1)N1CC(=O)N2[C@H](CO)[C@H](c3ccc(C#Cc4cccc(F)c4)cc3)[C@H]2C1	> 10 µM (inactive)
Cc1ccccc1-c1ccc([C@@H]2[C@@H](CO)N3C(=O)CN(S(C)(=O)=O)C[C@H]23)cc1	> 10 µM (inactive)
O=C1CNC[C@@H]2[C@H](c3ccc(C#CC4CCCCC4)cc3)[C@@H](CO)N12	> 10 µM (inactive)
COc1ccccc1C(=O)Nc1ccc2c(c1)C(=O)N(C)[C@@H]1CC[C@@H](CC(=O)NCCc3ccncc3)O[C@H]1CO2	> 10 µM (inactive)
OC[C@H]1[C@@H](c2ccc(-c3ccccc3F)cc2)[C@H]2CN(Cc3cncnc3)CCCCN21	> 10 µM (inactive)
CC(=O)N1CC[C@@H]2[C@@H](CO)N(C)c3ccc(-c4ccc(C#N)cc4)cc3[C@@H]21	> 10 µM (inactive)
Cc1ccccc1-c1ccc([C@@H]2[C@@H](CO)N3C(=O)CN(S(C)(=O)=O)C[C@@H]23)cc1	> 10 µM (inactive)
O=C(C[C@@H]1CC[C@H]2[C@@H](COC[C@H](O)CN2S(=O)(=O)c2cccc(F)c2)O1)Nc1ccc(-c2ccccc2)cc1	> 10 µM (inactive)
COc1cccc(C#Cc2ccc([C@@H]3[C@@H](CO)N4C(=O)CN(C(=O)Cc5cccnc5)C[C@H]34)cc2)c1	> 10 µM (inactive)
CN1C(=O)c2cc(NS(C)(=O)=O)ccc2OC[C@H]2O[C@@H](CC(=O)N3CCOCC3)CC[C@@H]21	> 10 µM (inactive)
O=C(C[C@@H]1CC[C@@H]2[C@H](COC[C@H](O)CN2C(=O)c2ccccc2)O1)Nc1ccc(-c2ccccc2)cc1	> 10 µM (inactive)
O=C(C[C@@H]1CC[C@@H]2[C@H](COC[C@@H](O)CN2C(=O)c2cccnc2)O1)NCc1ccccc1	> 10 µM (inactive)
COC(=O)C[C@H]1CC[C@@H]2[C@H](COc3ccc(NS(=O)(=O)c4ccccc4Cl)cc3C(=O)N2C)O1	> 10 µM (inactive)
O=C(Cc1ccccc1)N1C[C@H]2[C@@H](c3ccccc31)[C@@H](CO)N2C(=O)c1cccc(F)c1	> 10 µM (inactive)
COc1cccc(C#Cc2ccc([C@H]3[C@@H](CO)N4C(=O)CN(C(=O)Cc5cccnc5)C[C@H]34)cc2)c1	> 10 µM (inactive)
O=C(C[C@@H]1CC[C@@H]2[C@H](COC[C@@H](O)CN2Cc2ccccc2)O1)NCCc1ccccc1	> 10 µM (inactive)
CC(C)NC(=O)Nc1ccc2c(c1)C(=O)N(C)[C@H]1CC[C@@H](CC(=O)NCc3ccc(F)cc3)O[C@H]1CO2	> 10 µM (inactive)
O=C(C[C@H]1CC[C@H]2[C@@H](COC[C@H](O)CN2C(=O)Nc2ccc(Cl)c(Cl)c2)O1)NCc1ccc(Cl)cc1	> 10 µM (inactive)
CC(C)(O)C#Cc1ccc([C@H]2[C@H](CO)N3CCCCN(S(C)(=O)=O)C[C@@H]23)cc1	> 10 µM (inactive)
O=C(Cc1ccncc1)N1CC[C@@H]2[C@H](CO)Nc3ccc(-c4ccccc4F)cc3[C@@H]21	> 10 µM (inactive)
CCCC#Cc1ccc([C@@H]2[C@H]3CN(C(=O)CN4CCOCC4)CC(=O)N3[C@H]2CO)cc1	> 10 µM (inactive)
N#C[C@@H]1[C@@H](c2ccccc2-c2ccc(F)cc2)[C@H](CO)N1C(=O)Cc1cccnc1	> 10 µM (inactive)
COc1ccc(NC(=O)N2CCCCN3[C@@H](CO)[C@H](c4ccc(-c5ccccc5F)cc4)[C@@H]3C2)cc1	> 10 µM (inactive)

Compound	active concentration
CCS(=O)(=O)N1CC2(CN(CC3CCOCC3)[C@@H](CO)c3c2c2ccc(OC)cc2n3C)C1	> 10 µM (inactive)
CN1C[C@H]2[C@@H](c3ccccc31)[C@@H](CO)N2C(=O)Nc1cccc(F)c1	> 10 µM (inactive)
Cc1cccc(S(=O)(=O)N2CC[C@@H]3[C@H]2c2cc(-c4ccccc4F)ccc2N(C)[C@H]3CO)c1	> 10 µM (inactive)
COc1ccc2c3c(n(C)c2c1)[C@@H](CO)N(CC1CCOCC1)CC31CN(Cc2nccs2)C1	> 10 µM (inactive)
Cc1ccc(CN2CC(=O)N3[C@H](C2)[C@@H](c2ccc(-c4ccccc4F)cc2)[C@@H]3CO)cc1	> 10 µM (inactive)
CCCC#Cc1ccc([C@H]2[C@H](CO)N3C(=O)CN(C(=O)c4cccnc4)C[C@@H]23)cc1	> 10 µM (inactive)
COc1ccc2c3c([nH]c2c1)[C@@H](CO)N(C(=O)Nc1ccc(F)cc1)CC31CN(Cc2cc(-c3ccccc3)on2)C1	> 10 µM (inactive)
CC(C)NC(=O)N1[C@@H]2CN(C)c3ccccc3[C@@H]2[C@@H]1CO	> 10 µM (inactive)
CCCC(=O)N1CCC2(CC1)CN(Cc1ccc(Cl)cc1)[C@H](CO)c1[nH]c3cc(OC)ccc3c12	> 10 µM (inactive)
N#C[C@@H]1[C@@H](c2ccccc2-c2cccc(F)c2)[C@@H](CO)N1C(=O)CN1CCOCC1	> 10 µM (inactive)
Cn1cnc(CCNC(=O)C[C@@H]2CC[C@H]3[C@@H](COC[C@H](O)CN3C(=O)C3CC3)O2)c1	> 10 µM (inactive)
COc1ccc(NC(=O)N2CCCCN3[C@H](C2)[C@H](c2ccc(-c4ccccc4F)cc2)[C@@H]3CO)cc1	> 10 µM (inactive)
CC1C=NC(S(=O)(=O)N2CC[C@H]3[C@@H](CO)N(C)c4ccc(-c5ccccc5F)cc4[C@H]32)=N1 (some centres undefined)	> 10 µM (inactive)
O=C(c1ccccc1F)N1CC[C@H]2[C@H](CO)Nc3ccc(Br)cc3[C@H]21	> 10 µM (inactive)
COc1ccc2c3c([nH]c2c1)[C@@H](CO)N(C(=O)NC(C)C)CC31CCN(C(=O)c2cnccn2)CC1	> 10 µM (inactive)
CN1C(=O)c2cc(NS(C)(=O)=O)ccc2OC[C@H]2O[C@H](CC(=O)N3CCOCC3)CC[C@H]21	> 10 µM (inactive)
CN(C)C(=O)C[C@@H]1CC[C@H]2[C@@H](COC[C@@H](O)CN2CC2CC2)O1	> 10 µM (inactive)
COc1ccc(C#Cc2ccc([C@H]3[C@H]4CN(C(=O)c5ccc(F)cc5)CC(=O)N4[C@H]3CO)cc2)cc1	> 10 µM (inactive)
CC(C)CC#Cc1ccc([C@H]2[C@@H](CO)N3C(=O)CN(C(=O)c4ccccn4)C[C@@H]23)cc1	> 10 µM (inactive)
COC(=O)c1ccc(CN2CC(=O)N3[C@H](CO)[C@H](c4ccc(-c5cccnc5)cc4)[C@H]3C2)cc1	> 10 µM (inactive)
O=C(CN1CCOCC1)N1CCCCN2[C@H](CO)[C@@H](c3ccc(Br)cc3)[C@@H]2C1	> 10 µM (inactive)
O=C([C@H]1[C@H](CO)[C@H]2Cn3c(cccc3=O)[C@@H]1N2Cc1cocn1)N1CCCCC1	> 10 µM (inactive)
N#C[C@@H]1[C@@H](c2ccccc2-c2ccccc2F)[C@@H](CO)N1C(=O)C1CCC1	> 10 µM (inactive)

Compound	active concentration
CCN1CC(=O)N2[C@H](CO)[C@@H](c3ccc(Br)cc3)[C@H]2C1	> 10 µM (inactive)
CC=Cc1ccc2n(c1=O)C[C@@H]1[C@@H](CO)[C@H](C(=O)N3CCc4ccccc4C3)N(C(=O)C3CC3)[C@H]21 (mixture of isomers)	> 10 µM (inactive)
O=C([C@@H]1N[C@@H]2c3ccc(-c4ccccc4F)c(=O)n3C[C@@H]2[C@H]1CO)N1CCc2ccccc2C1	> 10 µM (inactive)
COc1cccc(NC(=O)N2C[C@H](O)COC[C@H]3O[C@H](CC(=O)NC4CCC4)CC[C@@H]32)c1	> 10 µM (inactive)
O=C(C[C@@H]1CC[C@H]2[C@@H](COC[C@H](O)CN2S(=O)(=O)c2ccccc2)O1)Nc1ccccc1	> 10 µM (inactive)
C/C=C/c1ccc([C@H]2[C@@H](CO)N3C(=O)CN(C(=O)c4ccncc4)C[C@@H]23)cc1	> 10 µM (inactive)
OC[C@@H]1Nc2ccc(-c3ccccc3)cc2[C@H]2[C@@H]1CCN2Cc1ccccc1F	> 10 µM (inactive)
COc1ccc(NC(=O)N2CC(=O)N3[C@H](CO)[C@H](c4ccc(Br)cc4)[C@@H]3C2)cc1	> 10 µM (inactive)
COc1ccc(-c2ccc3c(c2)[C@@H]2[C@@H](CCN2C(=O)CN2CCOCC2)[C@H](CO)N3)cc1	> 10 µM (inactive)
O=C(O)[C@H]1[C@H](CO)[C@H]2Cn3c(ccc(-c4cncnc4)c3=O)[C@H]2N1C(=O)C1CCCCC1	> 10 µM (inactive)
COc1ccccc1-c1ccccc1[C@H]1[C@H](C#N)N(C(=O)CN(C)C)[C@H]1CO	> 10 µM (inactive)
Cc1noc(C)c1NC(=O)Nc1ccc2c(c1)C(=O)N(C)[C@H]1CC[C@H](CC(=O)NCc3ccc(Cl)cc3)O[C@@H]1CO2	> 10 µM (inactive)
COC(=O)c1ccc(CN2CC(=O)N3[C@@H](CO)[C@H](c4ccc(-c5cccnc5)cc4)[C@@H]3C2)cc1	> 10 µM (inactive)
CN(C)C(=O)c1cccc(-c2ccc([C@H]3[C@H]4CN(CC5CCOCC5)CCCCN4[C@H]3CO)cc2)c1	> 10 µM (inactive)
CN1C[C@H](O)COC[C@H]2O[C@H](CC(=O)NC3CCCC3)CC[C@@H]21	> 10 µM (inactive)
CN1C(=O)c2cc(NS(C)(=O)=O)ccc2OC[C@@H]2O[C@H](CC(=O)NC3CCCCC3)CC[C@H]21	> 10 µM (inactive)
O=C(O)[C@H]1[C@H](CO)[C@H]2Cn3c(ccc(/C=C/c4ccccc4)c3=O)[C@H]2N1Cc1ccc2c(c1)OCO2	> 10 µM (inactive)
N#C[C@H]1[C@H](c2ccccc2-c2ccccc2)[C@@H](CO)N1C(=O)Cc1ccncc1	> 10 µM (inactive)
O=C(C1CCCCC1)N1C[C@H]2[C@@H](c3ccccc31)[C@H](CO)N2C(=O)Cc1ccccn1	> 10 µM (inactive)
Cn1cnc(CCNC(=O)C[C@@H]2CC[C@H]3[C@@H](COC[C@@H](O)CN3C(=O)C3CC3)O2)c1	> 10 µM (inactive)
CS(=O)(=O)N1C[C@@H](O)COC[C@@H]2O[C@H](CC(=O)NCc3ccc(-c4ccccc4)cc3)CC[C@H]21	> 10 µM (inactive)
CN(C)C(=O)[C@@H]1[C@@H](CO)[C@@H]2Cn3c(cccc3=O)[C@@H]2N1C(=O)C1CCC1	> 10 µM (inactive)
CCS(=O)(=O)N1CC(=O)N2[C@@H](CO)[C@@H](c3ccc(C#CC4CCCCC4)cc3)[C@@H]2C1	> 10 µM (inactive)
